In BindingDB's records for patent US12391660 (Hangzhou Westan Pharmaceutical Technology Co., 2025):

Target: Transient receptor potential cation channel subfamily A member 1 (Homo sapiens, UniProt O75762)
Experiment: FLIPR Assay of Inhibitory Activity on Human TRPA1
Protocol: Table 3.1: The cell analysis plate was placed in an FLIPR instrument ([…]), and the compound in the compound plate was added to the corresponding hole on the cell analysis plate (First addition) via an automatic program, and the calcium ion fluorescence signal was recorded to determine whether the compound had agonistic activity. After 10 minutes, CaCl2 (Second addition) was added a final concentration of 3 mM to each well to stimulate intracellular calcium flux signals. Ca++-dependent fluorescence signal was monitored continuously at 538 nm wavelength to analyze the inhibitory activity of the compounds.

Chain of Transient receptor potential cation channel subfamily A member 1 (O75762 whole entry): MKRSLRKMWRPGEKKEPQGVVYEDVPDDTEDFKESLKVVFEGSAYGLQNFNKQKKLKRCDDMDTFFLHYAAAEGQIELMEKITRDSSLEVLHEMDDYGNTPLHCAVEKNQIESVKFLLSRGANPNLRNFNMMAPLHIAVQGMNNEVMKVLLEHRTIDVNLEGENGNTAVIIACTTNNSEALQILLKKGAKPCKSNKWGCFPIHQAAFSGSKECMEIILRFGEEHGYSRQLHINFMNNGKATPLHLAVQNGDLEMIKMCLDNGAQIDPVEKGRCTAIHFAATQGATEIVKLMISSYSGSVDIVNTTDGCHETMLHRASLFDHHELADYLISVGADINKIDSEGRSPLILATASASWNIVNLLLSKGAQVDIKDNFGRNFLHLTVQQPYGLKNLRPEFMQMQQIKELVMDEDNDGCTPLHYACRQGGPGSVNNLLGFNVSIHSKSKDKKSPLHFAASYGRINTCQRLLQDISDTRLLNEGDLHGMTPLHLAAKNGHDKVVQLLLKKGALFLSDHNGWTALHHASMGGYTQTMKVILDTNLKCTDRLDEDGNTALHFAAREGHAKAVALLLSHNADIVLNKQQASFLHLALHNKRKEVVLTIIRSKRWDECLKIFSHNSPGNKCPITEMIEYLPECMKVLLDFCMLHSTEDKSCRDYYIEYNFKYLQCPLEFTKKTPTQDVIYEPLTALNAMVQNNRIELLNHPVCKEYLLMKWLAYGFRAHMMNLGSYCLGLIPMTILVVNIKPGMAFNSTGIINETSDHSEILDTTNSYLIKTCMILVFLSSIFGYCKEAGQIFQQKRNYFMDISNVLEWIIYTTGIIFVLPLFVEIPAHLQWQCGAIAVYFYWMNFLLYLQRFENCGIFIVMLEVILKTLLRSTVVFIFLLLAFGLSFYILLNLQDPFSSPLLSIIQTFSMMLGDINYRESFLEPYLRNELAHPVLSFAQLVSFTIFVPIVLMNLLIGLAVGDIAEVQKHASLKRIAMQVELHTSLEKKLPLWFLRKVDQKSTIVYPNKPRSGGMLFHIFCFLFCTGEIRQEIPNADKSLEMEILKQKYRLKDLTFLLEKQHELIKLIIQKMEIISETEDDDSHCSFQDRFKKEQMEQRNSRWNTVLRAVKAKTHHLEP

Row | SMILES | IC50
1 | O=C(N1CCN(c2cccc(C(F)(F)F)n2)CC1)C1(Nc2ccc(Cl)cc2)CCCC1 [US12391660, Compound 20] | 0.056 µM
2 | O=C(N1CCN(c2ccc(C(F)(F)F)nn2)CC1)C1(Nc2ccc([N+](=O)[O-])cc2)CCCC1 [US12391660, Compound 21] | 0.875 µM
3 | CN(c1ccc(C#N)cc1)C1(C(=O)N2CCC(C(C)(C)C)CC2)CCCC1 [US12391660, Compound 44] | 0.28 µM
4 | Cn1cc(OC2(C(=O)N3CCN(c4ccc(C(F)(F)F)cn4)CC3)CCCC2)nc1C#N [US12391660, Compound 61] | 2.87 µM
